Reference: publication PMC5207512, “Inhibition of Helicobacter pylori and Its Associated Urease by Palmatine: Investigation on the Potential Mechanism” (PLoS ONE, 2017)
Values joined by “and” are separate entries in the source; they are usually repeats but may differ in a detail not shown here. Identical values can stand only once. Like-named read-outs stand apart in the source and are kept apart here.

Experiments:
[1] = target: T1, jack bean urease (JBU) (Canavalia ensiformis, UniProt P07374); assay: Inhibition kinetic study (Lineweaver-Burk plots); type: biochemical; details: for Lineweaver-Burk plot raw value (reciprocal velocity): Fig 3B JBU
T1 construct: Urease from jack bean (Canavalia ensiformis, JBU); purchased Sigma-Aldrich (St Louis, MO, USA) type III (catalogue number not given)
T1 sequence (P07374 whole entry, looked up): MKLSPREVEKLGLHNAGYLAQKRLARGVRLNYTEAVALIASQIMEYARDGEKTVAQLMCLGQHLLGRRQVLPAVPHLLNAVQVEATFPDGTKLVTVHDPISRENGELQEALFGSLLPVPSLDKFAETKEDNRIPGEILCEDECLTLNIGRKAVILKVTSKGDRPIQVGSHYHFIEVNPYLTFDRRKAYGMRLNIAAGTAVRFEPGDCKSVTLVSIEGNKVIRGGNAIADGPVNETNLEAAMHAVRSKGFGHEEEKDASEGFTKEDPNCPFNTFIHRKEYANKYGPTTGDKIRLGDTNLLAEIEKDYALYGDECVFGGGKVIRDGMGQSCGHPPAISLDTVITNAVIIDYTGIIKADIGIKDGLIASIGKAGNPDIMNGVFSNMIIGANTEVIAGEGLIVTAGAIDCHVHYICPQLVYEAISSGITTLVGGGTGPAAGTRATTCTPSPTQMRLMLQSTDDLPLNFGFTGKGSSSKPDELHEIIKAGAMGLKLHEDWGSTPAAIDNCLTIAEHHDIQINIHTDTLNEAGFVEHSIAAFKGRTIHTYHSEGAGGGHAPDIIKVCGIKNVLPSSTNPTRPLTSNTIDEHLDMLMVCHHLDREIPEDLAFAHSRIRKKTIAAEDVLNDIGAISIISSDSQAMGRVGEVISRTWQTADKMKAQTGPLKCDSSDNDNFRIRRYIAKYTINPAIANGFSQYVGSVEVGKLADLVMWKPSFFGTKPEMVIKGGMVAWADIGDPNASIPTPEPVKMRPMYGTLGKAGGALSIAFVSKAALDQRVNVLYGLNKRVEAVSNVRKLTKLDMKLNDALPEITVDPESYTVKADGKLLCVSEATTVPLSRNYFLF
Experimental: (§1) Michaelis constant KM and the maximum velocity vmax values were evaluated by means of Lineweaver—Burk plots, using the initial velocities at different urea concentrations (ranging from 0.3125 to 15 mM), in the absence or presence of 1.00, 0.50, and 0.25 mM Pal. The concentrations of HPU and JBU were both 0.25 mg/mL in the assays. The values were obtained by applying nonlinear regression to the Michaelis-Menten equation. All experiments were performed in triplicate.

[2] = target: T2, H. pylori urease (HPU) (Helicobacter pylori, UniProt P69996); assay: biochemical; type: biochemical; details: for activity at 500 µM: read-out: Urease activity, Fig 6A HPU, Pal 0.5 mM, DTT 1.25 mM
T2 construct: HPU was prepared as previously described; made in house
T2 sequence (P14916 whole entry): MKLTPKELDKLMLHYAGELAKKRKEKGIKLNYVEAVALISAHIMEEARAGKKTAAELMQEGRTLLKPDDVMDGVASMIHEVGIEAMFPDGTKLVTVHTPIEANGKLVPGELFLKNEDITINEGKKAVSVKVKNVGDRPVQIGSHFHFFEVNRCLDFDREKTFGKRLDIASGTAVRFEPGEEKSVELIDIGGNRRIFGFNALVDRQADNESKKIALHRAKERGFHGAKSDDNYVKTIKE
T2 sequence (P69996 whole entry): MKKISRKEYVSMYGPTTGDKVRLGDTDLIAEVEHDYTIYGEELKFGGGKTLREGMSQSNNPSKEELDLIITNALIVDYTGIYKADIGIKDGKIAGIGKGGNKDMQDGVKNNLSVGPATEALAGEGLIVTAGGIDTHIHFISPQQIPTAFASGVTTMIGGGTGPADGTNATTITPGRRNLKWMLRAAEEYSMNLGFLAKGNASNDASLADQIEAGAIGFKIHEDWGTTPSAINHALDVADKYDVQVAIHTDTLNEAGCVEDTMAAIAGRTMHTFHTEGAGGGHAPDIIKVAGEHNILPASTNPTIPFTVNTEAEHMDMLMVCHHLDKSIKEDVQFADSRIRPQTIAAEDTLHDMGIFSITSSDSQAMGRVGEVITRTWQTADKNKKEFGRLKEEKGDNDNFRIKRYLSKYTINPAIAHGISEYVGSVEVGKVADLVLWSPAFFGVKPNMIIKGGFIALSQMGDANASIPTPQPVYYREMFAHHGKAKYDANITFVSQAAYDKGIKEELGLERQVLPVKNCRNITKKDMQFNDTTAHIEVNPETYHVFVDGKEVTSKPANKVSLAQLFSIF
Experimental: (§2) The reactivation of Pal-inactivated urease was investigated by DTT application. The preincubation mixture consisted of 0.25 mg/mL HPU or JBU and 0.5 mM Pal in 20 mM HEPES buffer (pH 7.5). Then the mixture was further incubated with 1.25 mM DTT after 20 min. The enzymatic activity of urease was determined before and after the addition of DTT. After a while, aliquots were withdrawn and the urease residual activity was determined. The experiments were repeated three times.

[3] = target: T1, jack bean urease (JBU); assay: biochemical; type: biochemical; details: for activity at 500 µM: read-out: Urease activity, Fig 6B JBU, Pal 0.5 mM, DTT 1.25 mM
Experimental: as §2

[4] = parameters: method as in PMID 24795799; details: cited from earlier work
[5] = target: T2, H. pylori urease (HPU); assay: Inhibition kinetic study (Lineweaver-Burk plots); type: biochemical; details: for Lineweaver-Burk plot raw value (reciprocal velocity): Fig 3A HPU
Experimental: as §1, with “([…]),” for “(ranging from 0.3125 to 15 mM),”

[6] = target: T2, H. pylori urease (HPU); assay: Urease inhibition test (modified Berthelot method); type: biochemical
Experimental: HPU was prepared as previously described. The standard urease assay mixture included 150 mM urea in 20 mM HEPES buffer (pH 7.5). After addition of small aliquots of enzyme-containing solution of urease, the assay ran for 20 min. The enzymatic activity was evaluated spectrophotometrically by detecting the ammonia concentration at 595 nm according to the modified Berthelot (phenol-hypochlorite) method. Urease activity was estimated with JBU as a standard, the specific activity of HPU was determined to be 17.0 U/mg. One unit of urease activity was defined as 1 μmol of ammonia released per min at 25°C. The amount of protein was determined by commercial Bradford Protein Assay Kit with BSA as a standard. The amount of ammonia released was decided from a standard curve. The activity of uninhibited urease was defined as the control activity of 100%.
Reaction mixtures comprising 0.25 mg/mL HPU or JBU and different concentrations of Pal or AHA at the volume ratio of 1:1, were incubated at 37°C in 20 mM HEPES buffer (pH 7.5) in the absence of urea. The reactions were initiated by mixing the urease and the inhibitor. The preincubation mixture was withdrawn at 20 min and immediately transferred into the standard assay mixtures for urease residual activity determination. Inhibition rate (%) was calculated following the formula: I % = (1-activity with inhibitors/activity without inhibitors) × 100%. The IC50 was expressed as the concentration of inhibitor that decreased urease activity by 50% and calculated by plotting the percent of inhibition. The experiments were triply performed.

[7] = parameters: method as in PMID 23159469; details: among berberine, coptisine, palmatine and epiberberine; in vitro and in vivo assays; cited from earlier work

Compound: COc1cc2c(cc1OC)-c1cc3ccc(OC)c(OC)c3c[n+]1CC2 [Pal, Palmatine]
- Lineweaver-Burk plot raw value (reciprocal velocity) ([1]; Pal=0.25 mM, 1/urea 0.0333333): 6.736 and 6.4288 and 6.3593
- Lineweaver-Burk plot raw value (reciprocal velocity) ([1]; Pal=0.25 mM, 1/urea 0.0666667): 9.843 and 8.358 and 8.117
- Lineweaver-Burk plot raw value (reciprocal velocity) ([1]; Pal=0.25 mM, 1/urea 0.266667): 12.8949 and 20.429 and 18.9394
- Lineweaver-Burk plot raw value (reciprocal velocity) ([1]; Pal=0.25 mM, 1/urea 0.533333): 27.5862 and 33.6135 and 34.6021
- Lineweaver-Burk plot raw value (reciprocal velocity) ([1]; Pal=0.25 mM, 1/urea 1.06667): 85.4701 and 51.1509 and 56.8182
- Lineweaver-Burk plot raw value (reciprocal velocity) ([1]; Pal=0.50 mM, 1/urea 0.0333333): 6.923 and 7.202 and 9.225
- Lineweaver-Burk plot raw value (reciprocal velocity) ([1]; Pal=0.50 mM, 1/urea 0.0666667): 8.807 and 9.298 and 11.1669
- Lineweaver-Burk plot raw value (reciprocal velocity) ([1]; Pal=0.50 mM, 1/urea 0.133333): 18.6916 and 14.9813 and 17.4672
- Lineweaver-Burk plot raw value (reciprocal velocity) ([1]; Pal=0.50 mM, 1/urea 0.266667): 37.037 and 24.1255 and 22.7273
- Lineweaver-Burk plot raw value (reciprocal velocity) ([1]; Pal=0.50 mM, 1/urea 0.533333): 57.971 and 34.3053 and 43.4783
- Lineweaver-Burk plot raw value (reciprocal velocity) ([1]; Pal=1.00 mM, 1/urea 0.0333333): 7.877 and 9.307 and 11.4613
- Lineweaver-Burk plot raw value (reciprocal velocity) ([1]; Pal=1.00 mM, 1/urea 0.0666667): 11.4679 and 16.2867 and 12.6662
- Lineweaver-Burk plot raw value (reciprocal velocity) ([1]; Pal=1.00 mM, 1/urea 0.133333): 16.1031 and 22.0507 and 21.7155
- Lineweaver-Burk plot raw value (reciprocal velocity) ([1]; Pal=1.00 mM, 1/urea 0.266667): 25.0313 and 34.7222 and 40.9836
- Lineweaver-Burk plot raw value (reciprocal velocity) ([1]; Pal=1.00 mM, 1/urea 0.533333): 40.4858 and 35.0263 and 56.6572
- type of urease inhibition ([1]; JBU, Lineweaver-Burk): noncompetitive
- activity at 500 µM ([2]; 5 min, incubation time 5 min): 54%
- activity at 500 µM ([2]; 10 min, incubation time 10 min): 49.3%
- activity at 500 µM ([2]; 0.25 h, incubation time 15 min): 49.3%
- activity at 500 µM ([2]; 20 min, incubation time 20 min): 31.8%
- reversibility of inhibition ([2]; HPU, DTT reactivation assay): reversible
- activity at 500 µM ([3]; 5 min, incubation time 5 min): 32.2%
- activity at 500 µM ([3]; 10 min, incubation time 10 min): 20.5%
- activity at 500 µM ([3]; 0.25 h, incubation time 15 min): 21.6%
- activity at 500 µM ([3]; 20 min, incubation time 20 min): 30.9%
- reversibility of inhibition ([3]; JBU, DTT reactivation assay): reversible
- anti-ulcerogenic activity [4]: better than that of the C. chinensis extract and its active principle berberine
- Lineweaver-Burk plot raw value (reciprocal velocity) ([5]; Pal=0.25 mM, 1/urea 0.0333333): 3.3428 and 3.026 and 3.128
- Lineweaver-Burk plot raw value (reciprocal velocity) ([5]; Pal=0.25 mM, 1/urea 0.0666667): 3.79 and 3.489 and 3.584
- Lineweaver-Burk plot raw value (reciprocal velocity) ([5]; Pal=0.25 mM, 1/urea 0.133333): 4.108 and 3.898 and 3.84
- Lineweaver-Burk plot raw value (reciprocal velocity) ([5]; Pal=0.25 mM, 1/urea 0.266667): 4.796 and 4.692 and 4.666
- Lineweaver-Burk plot raw value (reciprocal velocity) ([5]; Pal=0.25 mM, 1/urea 0.533333): 6.008 and 5.574 and 5.658
- Lineweaver-Burk plot raw value (reciprocal velocity) ([5]; Pal=0.25 mM, 1/urea 1.06667): 7.22 and 6.84 and 7.11
- Lineweaver-Burk plot raw value (reciprocal velocity) ([5]; Pal=0.50 mM, 1/urea 0.0333333): 6.847 and 6.4288 and 8.753
- Lineweaver-Burk plot raw value (reciprocal velocity) ([5]; Pal=0.50 mM, 1/urea 0.0666667): 7.294 and 6.935 and 7.391
- Lineweaver-Burk plot raw value (reciprocal velocity) ([5]; Pal=0.50 mM, 1/urea 0.133333): 8.5 and 7.307 and 9.1701
- Lineweaver-Burk plot raw value (reciprocal velocity) ([5]; Pal=0.50 mM, 1/urea 0.266667): 11.3701 and 11.0558
- Lineweaver-Burk plot raw value (reciprocal velocity) ([5]; Pal=0.50 mM, 1/urea 0.533333): 13.369 and 12.3993
- Lineweaver-Burk plot raw value (reciprocal velocity) ([5]; Pal=0.50 mM, 1/urea 1.06667): 12.1433 and 18.315 and 12.9786
- Lineweaver-Burk plot raw value (reciprocal velocity) ([5]; Pal=1.00 mM, 1/urea 0.0333333): 10.7527 and 9.785 and 8.636
- Lineweaver-Burk plot raw value (reciprocal velocity) ([5]; Pal=1.00 mM, 1/urea 0.0666667): 12.8452 and 10.5708 and 10.7296
- Lineweaver-Burk plot raw value (reciprocal velocity) ([5]; Pal=1.00 mM, 1/urea 0.133333): 12.2775 and 12.7551 and 11.5942
- Lineweaver-Burk plot raw value (reciprocal velocity) ([5]; Pal=1.00 mM, 1/urea 0.266667): 16.5017 and 10.1061 and 12.6342
- Lineweaver-Burk plot raw value (reciprocal velocity) ([5]; Pal=1.00 mM, 1/urea 0.533333): 22.1239 and 12.1729 and 15.3022
- Lineweaver-Burk plot raw value (reciprocal velocity) ([5]; Pal=1.00 mM, 1/urea 1.06667): 26.3505 and 13.2013 and 19.861
- type of urease inhibition ([5]; HPU, Lineweaver-Burk): noncompetitive
- IC50 [6]: 530 ± 10 µM
- Residual activity ([6]; Fig 2A HPU, Pal 0.0149062 mM, replicates): 97.2774% and 99.8185%
- Residual activity ([6]; Fig 2A HPU, Pal 0.0298125 mM, replicates): 98.3238% and 98.6586%
- Residual activity ([6]; Fig 2A HPU, Pal 0.059625 mM, replicates): 95.8144% and 91.8003%
- Residual activity ([6]; Fig 2A HPU, Pal 0.11925 mM, replicates): 84.6333% and 83.9334%
- Residual activity ([6]; Fig 2A HPU, Pal 0.2385 mM, replicates): 71.2237% and 68.6838%
- Residual activity ([6]; Fig 2A HPU, Pal 0.477 mM, replicates): 44.3368% and 41.1296%
- Residual activity ([6]; Fig 2A HPU, Pal 0.954 mM, replicates): 18.2056% and 23.6712%
- Residual activity ([6]; Fig 2C HPU, head prints Pal 0.00755209 mM, replicates): 104.061% and 86.9419%
- Residual activity ([6]; Fig 2C HPU, head prints Pal 0.0151042 mM, replicates): 98.3628% and 84.9736%
- Residual activity ([6]; Fig 2C HPU, head prints Pal 0.0302084 mM, replicates): 80.4878% and 87.2209% and 66.9067%
- Residual activity ([6]; Fig 2C HPU, head prints Pal 0.0604167 mM, replicates): 64.023% and 48.6958%
- Residual activity ([6]; Fig 2C HPU, head prints Pal 0.120833 mM, replicates): 34.9663% and 29.6848%
- Residual activity ([6]; Fig 2C HPU, head prints Pal 0.241667 mM, replicates): 20.774% and 15.3785%
- remaining activity at 14.9062 µM ([6]; read-out: Residual activity, Fig 2A HPU, Pal 0.0149062 mM, replicates): 98.5%
- remaining activity at 29.8125 µM ([6]; read-out: Residual activity, Fig 2A HPU, Pal 0.0298125 mM, replicates): 92%
- remaining activity at 59.625 µM ([6]; read-out: Residual activity, Fig 2A HPU, Pal 0.059625 mM, replicates): 88%
- remaining activity at 119.25 µM ([6]; read-out: Residual activity, Fig 2A HPU, Pal 0.11925 mM, replicates): 77.1%
- remaining activity at 238.5 µM ([6]; read-out: Residual activity, Fig 2A HPU, Pal 0.2385 mM, replicates): 66.8%
- remaining activity at 477 µM ([6]; read-out: Residual activity, Fig 2A HPU, Pal 0.477 mM, replicates): 49.6%
- remaining activity at 954 µM ([6]; read-out: Residual activity, Fig 2A HPU, Pal 0.954 mM, replicates): 24.2%
- remaining activity at 7.55209 µM ([6]; read-out: Residual activity, Fig 2C HPU, head prints Pal 0.00755209 mM, replicates): 94.8%
- remaining activity at 15.1042 µM ([6]; read-out: Residual activity, Fig 2C HPU, head prints Pal 0.0151042 mM, replicates): 92.1%
- remaining activity at 60.4167 µM ([6]; read-out: Residual activity, Fig 2C HPU, head prints Pal 0.0604167 mM, replicates): 56.1%
- remaining activity at 120.833 µM ([6]; read-out: Residual activity, Fig 2C HPU, head prints Pal 0.120833 mM, replicates): 31%
- remaining activity at 241.667 µM ([6]; read-out: Residual activity, Fig 2C HPU, head prints Pal 0.241667 mM, replicates): 23.2%
- toxicity [7]: minimal
